Measurements from PubChem BioAssay (NCI).
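Where inhibition never reached the appropriate level, the endpoint shown equals the highest concentration tested. Otherwise, values were interpolated linearly from a five-concentration, 48-hour dose response in 96-well plates. TGI denotes the concentration required for complete inhibition of growth.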

Legend:
Assay in all cases: inhibition of tumour cell growth, NCI panel, 48 h
[1] = test system: SK-MEL-5 melanoma
[2] = test system: NCI-H460 lung
[3] = test system: SF-295 CNS
[4] = test system: HT29 colon
[5] = test system: SN12C renal
[6] = test system: K-562 leukemia
[7] = test system: A498 renal
[8] = test system: MCF7 breast
[9] = test system: KM12 colon
[10] = test system: MDA-MB-435
[11] = test system: SR leukemia
[12] = test system: UACC-62 melanoma
[13] = test system: NCI-H522 lung
[14] = test system: HL-60(TB) leukemia
[15] = test system: SF-539 CNS
[16] = test system: NCI/ADR-RES ovarian
[17] = test system: MDA-N
[18] = test system: HCC-2998 colon
[19] = test system: TK-10 renal
[20] = test system: IGROV1 ovarian
[21] = test system: HOP-92 NSCLC
[22] = test system: SK-MEL-2 melanoma
[23] = test system: OVCAR-3 ovarian
[24] = test system: ACHN renal
[25] = test system: HCT-15 colon
[26] = test system: SF-268 CNS
[27] = test system: COLO 205 colon
[28] = test system: 786-0 renal
[29] = test system: OVCAR-8 ovarian
[30] = test system: DU-145 prostate
[31] = test system: U251 CNS
[32] = test system: HCT-116 colon
[33] = test system: OVCAR-5 ovarian
[34] = test system: SK-OV-3 ovarian
[35] = test system: NCI-H23 lung
[36] = test system: T-47D breast
[37] = test system: OVCAR-4 ovarian
[38] = test system: MALME-3M melanoma
[39] = test system: CAKI-1 renal
[40] = test system: PC-3 prostate
[41] = test system: M14 melanoma
[42] = test system: RXF 393 renal
[43] = test system: UO-31 renal
[44] = test system: UACC-257 melanoma
[45] = test system: BT-549 breast
[46] = test system: SK-MEL-28 melanoma
[47] = test system: HS 578T breast
[48] = test system: MDA-MB-231 breast
[49] = test system: CCRF-CEM leukemia
[50] = test system: EKVX NSCLC
[51] = test system: LOX IMVI melanoma
[52] = test system: SNB-19 CNS
[53] = test system: NCI-H226 lung
[54] = test system: HOP-62 NSCLC
[55] = test system: SW-620 colon
[56] = test system: RPMI-8226 leukemia
[57] = test system: A549 NSCLC
[58] = test system: SNB-75 CNS
[59] = test system: MOLT-4 leukemia

COc1ccc(NC(=S)N/N=C(\c2ccccc2)c2ccccn2)cc1
TGI [1]: 6.53 µM
TGI [2]: 6.47 µM
TGI [3]: 9.59 µM
TGI [4]: 23.6 µM
TGI [5]: 7.24 µM
TGI [6]: 3.06 µM
TGI [7]: 16 µM
TGI [8]: 0.703 µM
TGI [9]: 15.9 µM
TGI [10]: 16.9 µM
TGI [11]: 5.57 µM
TGI [12]: 10.2 µM
TGI [13]: 15.3 µM
TGI [14]: 1.9 µM
TGI [15]: 3.03 µM
TGI [16]: 23.8 µM
TGI [17]: 16.2 µM
TGI [18]: 22.3 µM
TGI [19]: 2.27 µM
TGI [20]: 17.2 µM
TGI [21]: 9.87 µM
TGI [22]: 14.1 µM
TGI [23]: 13.2 µM
TGI [24]: 10.5 µM
TGI [25]: 15 µM
TGI [26]: 14.8 µM
TGI [27]: 30.3 µM
TGI [28]: 11.2 µM
TGI [29]: 11.7 µM
TGI [30]: 11.2 µM
TGI [31]: 27.1 µM
TGI [32]: 13.7 µM
TGI [33]: 6.5 µM
TGI [34]: 16 µM
TGI [35]: 16.4 µM
TGI [36]: 13.6 µM
TGI [37]: 16.9 µM
TGI [38]: 11 µM
TGI [39]: 10.5 µM
TGI [40]: 17.6 µM
TGI [41]: 2.61 µM
TGI [42]: 15.7 µM
TGI [43]: 8.73 µM
TGI [44]: 2.44 µM
TGI [45]: 20.2 µM
TGI [46]: 18.5 µM
TGI [47]: 56.8 µM
TGI [48]: 14.4 µM
TGI [49]: > 40.1 µM
TGI [50]: 2.65 µM
TGI [51]: 18.4 µM
TGI [52]: 18.5 µM
TGI [53]: 2.61 µM
TGI [54]: 5.33 µM
TGI [55]: 20.2 µM
TGI [56]: > 20.6 µM
TGI [57]: 14.2 µM

COc1ccc(CNc2nc3ccccc3nc2C(=O)O)cc1OC
TGI [1]: > 100 µM
TGI [2]: > 100 µM
TGI [3]: > 100 µM
TGI [4]: > 100 µM
TGI [5]: > 100 µM
TGI [6]: > 100 µM
TGI [7]: > 100 µM
TGI [8]: > 100 µM
TGI [9]: > 100 µM
TGI [10]: > 100 µM
TGI [11]: > 100 µM
TGI [12]: > 100 µM
TGI [13]: > 100 µM
TGI [14]: > 100 µM
TGI [15]: > 100 µM
TGI [16]: > 100 µM
TGI [58]: > 100 µM
TGI [17]: > 100 µM
TGI [18]: > 100 µM
TGI [59]: > 100 µM
TGI [19]: > 100 µM
TGI [20]: > 100 µM
TGI [21]: > 100 µM
TGI [23]: > 100 µM
TGI [24]: > 100 µM
TGI [25]: > 100 µM
TGI [26]: > 100 µM
TGI [27]: > 100 µM
TGI [28]: > 100 µM
TGI [29]: > 100 µM
TGI [30]: > 100 µM
TGI [31]: > 100 µM
TGI [32]: > 100 µM
TGI [34]: > 100 µM
TGI [35]: > 100 µM
TGI [36]: > 100 µM
TGI [37]: > 100 µM
TGI [38]: > 100 µM
TGI [39]: > 100 µM
TGI [40]: > 100 µM
TGI [42]: > 100 µM
TGI [43]: > 100 µM
TGI [44]: > 100 µM
TGI [45]: > 100 µM
TGI [46]: > 100 µM
TGI [47]: > 100 µM
TGI [48]: > 100 µM
TGI [49]: > 100 µM
TGI [50]: > 100 µM
TGI [51]: > 100 µM
TGI [53]: > 100 µM
TGI [54]: > 100 µM
TGI [55]: > 100 µM
TGI [56]: > 100 µM
TGI [57]: > 100 µM

Cc1ccc(S(=O)(=O)C2=C([Si](C)(C)C)C3CC2[C@@H]2C4C=CC(CC4)[C@H]32)cc1 (stereo not given in full)
TGI [1]: > 100 µM
TGI [2]: > 100 µM
TGI [3]: > 100 µM
TGI [4]: > 100 µM
TGI [5]: > 100 µM
TGI [6]: > 100 µM
TGI [7]: > 100 µM
TGI [8]: > 100 µM
TGI [9]: > 100 µM
TGI [10]: > 100 µM
TGI [11]: > 100 µM
TGI [12]: > 100 µM
TGI [13]: > 100 µM
TGI [14]: > 100 µM
TGI [15]: 88 µM
TGI [16]: > 100 µM
TGI [17]: > 100 µM
TGI [18]: > 100 µM
TGI [59]: > 100 µM
TGI [19]: 99.2 µM
TGI [20]: > 100 µM
TGI [21]: > 100 µM
TGI [22]: 77.4 µM
TGI [23]: > 100 µM
TGI [24]: > 100 µM
TGI [25]: > 100 µM
TGI [26]: > 100 µM
TGI [27]: > 100 µM
TGI [28]: > 100 µM
TGI [29]: > 100 µM
TGI [30]: > 100 µM
TGI [31]: > 100 µM
TGI [32]: > 100 µM
TGI [33]: > 100 µM
TGI [34]: > 100 µM
TGI [36]: > 100 µM
TGI [37]: > 100 µM
TGI [38]: > 100 µM
TGI [39]: > 100 µM
TGI [40]: > 100 µM
TGI [41]: > 100 µM
TGI [42]: > 100 µM
TGI [43]: > 100 µM
TGI [44]: > 100 µM
TGI [45]: > 100 µM
TGI [46]: > 100 µM
TGI [47]: > 100 µM
TGI [48]: > 100 µM
TGI [50]: > 100 µM
TGI [51]: > 100 µM
TGI [52]: 76.1 µM
TGI [53]: > 100 µM
TGI [54]: > 100 µM
TGI [55]: > 100 µM
TGI [57]: > 100 µM

COC(=O)C1(CCC(=O)N(C)c2ccccc2)NNC2C(=O)N(c3ccccc3)C(=O)C21 (stereo not given)
TGI [1]: > 10 µM
TGI [2]: > 10 µM
TGI [3]: > 10 µM
TGI [4]: > 10 µM
TGI [5]: > 10 µM
TGI [7]: > 10 µM
TGI [8]: > 10 µM
TGI [9]: > 10 µM
TGI [10]: > 10 µM
TGI [11]: > 10 µM
TGI [12]: > 10 µM
TGI [13]: > 10 µM
TGI [14]: > 10 µM
TGI [15]: > 10 µM
TGI [16]: > 10 µM
TGI [58]: > 10 µM
TGI [17]: > 10 µM
TGI [18]: > 10 µM
TGI [19]: > 10 µM
TGI [20]: > 10 µM
TGI [21]: > 10 µM
TGI [22]: > 10 µM
TGI [23]: > 10 µM
TGI [24]: > 10 µM
TGI [25]: > 10 µM
TGI [26]: > 10 µM
TGI [27]: > 10 µM
TGI [28]: > 10 µM
TGI [29]: > 10 µM
TGI [30]: > 10 µM
TGI [31]: > 10 µM
TGI [32]: > 10 µM
TGI [33]: > 10 µM
TGI [34]: > 10 µM
TGI [35]: > 10 µM
TGI [36]: > 10 µM
TGI [37]: > 10 µM
TGI [38]: > 10 µM
TGI [39]: > 10 µM
TGI [40]: > 10 µM
TGI [41]: > 10 µM
TGI [42]: > 10 µM
TGI [43]: > 10 µM
TGI [44]: > 10 µM
TGI [45]: > 10 µM
TGI [46]: > 10 µM
TGI [47]: > 10 µM
TGI [48]: > 10 µM
TGI [49]: > 10 µM
TGI [50]: > 10 µM
TGI [51]: > 10 µM
TGI [52]: > 10 µM
TGI [53]: > 10 µM
TGI [54]: > 10 µM
TGI [55]: > 10 µM
TGI [56]: > 10 µM
TGI [57]: > 10 µM

CC1C2CC(CC23OCC(CCl)O3)C1(C)C (stereo not given)
TGI [1]: > 100 µM
TGI [2]: > 100 µM
TGI [3]: > 100 µM
TGI [4]: > 100 µM
TGI [5]: > 100 µM
TGI [6]: > 100 µM
TGI [7]: > 100 µM
TGI [8]: > 100 µM
TGI [9]: > 100 µM
TGI [10]: > 100 µM
TGI [11]: > 100 µM
TGI [12]: > 100 µM
TGI [13]: > 100 µM
TGI [14]: > 100 µM
TGI [15]: > 100 µM
TGI [16]: > 100 µM
TGI [58]: > 100 µM
TGI [17]: > 100 µM
TGI [18]: > 100 µM
TGI [59]: > 100 µM
TGI [19]: > 100 µM
TGI [20]: > 100 µM
TGI [21]: > 100 µM
TGI [23]: > 100 µM
TGI [24]: > 100 µM
TGI [25]: > 100 µM
TGI [26]: > 100 µM
TGI [27]: > 100 µM
TGI [28]: > 100 µM
TGI [29]: > 100 µM
TGI [30]: > 100 µM
TGI [32]: > 100 µM
TGI [34]: > 100 µM
TGI [35]: > 100 µM
TGI [36]: > 100 µM
TGI [37]: > 100 µM
TGI [38]: > 100 µM
TGI [39]: > 100 µM
TGI [40]: > 100 µM
TGI [41]: > 100 µM
TGI [42]: > 100 µM
TGI [43]: > 100 µM
TGI [44]: > 100 µM
TGI [45]: > 100 µM
TGI [46]: > 100 µM
TGI [47]: > 100 µM
TGI [48]: > 100 µM
TGI [49]: > 100 µM
TGI [50]: > 100 µM
TGI [51]: > 100 µM
TGI [52]: > 100 µM
TGI [53]: > 100 µM
TGI [54]: > 100 µM
TGI [55]: > 100 µM
TGI [56]: > 100 µM
TGI [57]: > 100 µM
